Laboratory results as given in patent US10100335B2, “Microbial production of branched medium chain alcohols, such as 4-methylpentanol” (Massachusetts Institute of Technology, priority 2013, dated 2018).
Values after ≈ are worked out from the molar mass of the structure shown.

Assays:
MG1655(DE3) endA recA = assay: Toxicity of exogenously added alcohols on exponential growth rate; assay type: cell-based, E. coli; details: for reduction in growth rate: 10 mM alcohol in LB medium with 1.2% glucose
Procedure: The exponential growth rate was unchanged by 4-methyl-1-pentanol concentrations exceeding those observed in final titers (193±23 mg/L) for the high producing Strain M1Fj(IA)2I34. The highest 4-methyl-1-pentanol concentration (10 mM, 1022 mg/L) did lead to a reduction in growth rate of 40%. […] If higher titers of 4-methyl-1-pentanol are achieved, in situ gas stripping or simple phase separation could potentially be used to extract 4-methyl-1-pentanol from the culture medium (Lee 1994).
Duplicate 3 ml cultures in LB+1.2% glucose+alcohol were inoculated to an initial OD600 of 0.1. Cultures were contained in the same 50 ml screw-cap tubes used in production experiments. […] Growth was monitored by optical density and the growth rate was calculated from a linear regression of the natural log of the OD600 values for the 1.5, 2, and 2.5 hour post-inoculation time points.

[1] = cited from earlier work
[2] = biological target: T1, CarNi (Nocardia iowensis carboxylic acid reductase) (Nocardia iowensis, UniProt Q6RKB1); assay type: biochemical; details: for CarNi activity on aliphatic acid substrate: 13 straight and branched acids from C2-C8; for observed CarNi activity relative to activity on 4-methyl-valerate: in vitro, his-purified CarNi, 50 mM acid substrate
T1 construct: made in house; host or cells: E. coli BL21 Star (DE3) harboring pET/His-Car-RBS2-Sfp
Procedure: Strain M4 expressing car-sfp-ADH6 was fed five different acids at 10 mM initial concentration. Selectivity was determined by measuring normalized titers 5 hours post induction of gene expression. […] Initial rates were measured by monitoring NADPH consumption by measuring absorption at 340 nm.
Assays were devised to confirm activity on desired substrates in vitro and in vivo. In the first, N-terminal his-tagged CarNi was purified and assayed by UV absorption of NADPH with 13 straight and branched acids from C2-C8. […] A complementary in vivo assay was designed to examine the effectiveness of the Module 4 pairing. Butyrate, valerate. 3-methyl-valerate, 4-methyl-valerate, and hexanoate were fed to E. coli cultures expressing CarNi/ADH6Sc and conversion was monitored by sampling the culture media and liquid chromatography (LC).
Relative Activity Assay for Purified his-Car: An overnight culture of BL21 Star (DE3) (Invitrogen) harboring pET/His-Car-RBS2-Sfp was used as 10% (v/v) inoculum in 2 L of LB Broth. The culture was incubated at 30° C. and 250 rpm, and expression was induced using a final concentration of 1 mM IPTG at OD 0.6. Cells were harvested after 20 hours using centrifugation and resuspended in a buffer containing 50 mM Tris-HCl pH 8.0, 300 mM NaCl, and 10% glycerol. Cells were subsequently lysed using sonication. The supernatant was collected and applied to a column containing Ni-NTA resin (Qiagen). Affinity chromatography was performed using step-wise increasing concentrations of imidazole. Fractions containing purified His6-Car were dialyzed overnight at 4° C. into 50 mM Tris-HCl pH 7.5, 50 mM NaCl, 1 mM DTT, and 10% glycerol. Dialyzed enzyme was then flash frozen using liquid nitrogen and stored at −80° C. The activity of His-Car on various substrates was determined by changes in absorbance at 340 nm for up to 5 minutes in 96-well microplates using a plate reader (Tecan Infinite F200 Pro). Reactions were prepared as follows: 100 mM Tris-HCl pH 7.5, 10 mM MgCl2, 0.6 mM NADPH, 1 mM ATP, 224 nM His-Car, and 50 mM pH neutralized acid substrate. Changes in absorbance at 340 nm were detected using a filter. All substrates were assayed in triplicate. For KM and Vmax determinations, substrates were assayed at 5 different concentrations.

T1 sequence (Q6RKB1 whole entry): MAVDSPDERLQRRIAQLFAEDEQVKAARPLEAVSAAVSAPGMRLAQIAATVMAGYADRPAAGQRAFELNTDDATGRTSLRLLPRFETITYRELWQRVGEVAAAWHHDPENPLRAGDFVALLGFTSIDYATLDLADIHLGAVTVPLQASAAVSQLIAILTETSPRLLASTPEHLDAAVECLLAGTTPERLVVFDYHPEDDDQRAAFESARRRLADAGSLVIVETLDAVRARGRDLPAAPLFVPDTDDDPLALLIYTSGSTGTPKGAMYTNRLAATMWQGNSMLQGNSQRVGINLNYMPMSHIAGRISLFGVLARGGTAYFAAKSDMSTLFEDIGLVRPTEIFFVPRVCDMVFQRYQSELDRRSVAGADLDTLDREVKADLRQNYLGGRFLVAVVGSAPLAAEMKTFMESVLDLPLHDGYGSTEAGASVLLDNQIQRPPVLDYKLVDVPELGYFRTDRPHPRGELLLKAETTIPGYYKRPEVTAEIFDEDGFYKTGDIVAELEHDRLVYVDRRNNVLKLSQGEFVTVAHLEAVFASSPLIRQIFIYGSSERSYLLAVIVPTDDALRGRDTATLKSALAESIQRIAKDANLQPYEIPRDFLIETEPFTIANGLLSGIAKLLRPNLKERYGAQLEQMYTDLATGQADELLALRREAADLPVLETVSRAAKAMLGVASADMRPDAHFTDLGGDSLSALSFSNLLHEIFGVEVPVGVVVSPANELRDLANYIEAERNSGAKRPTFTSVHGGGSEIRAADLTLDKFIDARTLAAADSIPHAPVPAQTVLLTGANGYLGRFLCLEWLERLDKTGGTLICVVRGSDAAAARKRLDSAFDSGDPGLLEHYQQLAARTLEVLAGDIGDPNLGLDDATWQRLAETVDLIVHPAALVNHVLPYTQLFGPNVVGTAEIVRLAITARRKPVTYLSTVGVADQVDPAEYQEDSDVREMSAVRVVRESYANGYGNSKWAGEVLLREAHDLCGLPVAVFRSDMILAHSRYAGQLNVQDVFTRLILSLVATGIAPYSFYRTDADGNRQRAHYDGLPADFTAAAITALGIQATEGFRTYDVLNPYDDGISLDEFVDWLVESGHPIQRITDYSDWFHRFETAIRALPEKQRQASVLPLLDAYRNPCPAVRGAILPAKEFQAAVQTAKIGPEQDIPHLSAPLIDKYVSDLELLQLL

| SMILES | reduction in growth rate (MG1655(DE3) endA recA) [%] | effect on exponential growth rate (MG1655(DE3) endA recA; concentrations up to 5 mM) | CarNi activity on aliphatic acid substrate [2] | observed CarNi activity relative to activity on 4-methyl-valerate [2] [%] | also measured |
| --- | --- | --- | --- | --- | --- |
| CC(C)CCCO [4-methyl-1-pentanol] | 40 | did not inhibit |  |  | effect on exponential growth rate (MG1655(DE3) endA recA; concentrations exceeding those observed in final titers (193±23 mg/L)): unchanged; solubility in water [1]: 7400 µg/mL (≈ 72.4 mM) |
| CC(C)C(=O)O [isobutyrate] |  |  | reduced activity | 25 | Km ([2]; purified His-CarNi, initial rates by NADPH consumption at 340 nm): 78 ± 9 mM |
| CCCC(=O)O [butyrate] |  |  |  | 56 |  |
| CC(C)CO [isobutanol] | 10 | did not inhibit |  |  |  |
| CC(=O)O [acetate] |  |  | reduced activity |  |  |
| CCC(C)CCC(=O)O (stereo not drawn) [4-methyl-hexanoate] |  |  | highest activity |  |  |
